# Experiments:
# [1] = system: TT cells (MTC, RET C634W); experiment: TT cell proliferation (CellTiter-Glo); format: cell-based, human
# Procedure: When TT cells were cultured to the appropriate fusion level, TT cells were collected, and the cells were adjusted to the appropriate cell concentration using complete medium, and the cell suspension was spread in a 96-well plate, 90 µL per well, and placed in a 37° C., 5% CO2 incubator overnight; and compound solutions of different concentrations were prepared using DMSO and culture medium; and a solvent control was set, the compound solution was added to a 96-well plate, 10 µL per well, at 37° C. in a 5% CO2 incubator for 72 hours; CellTiter-Glo solution was added thereto and the mixture was mixed well by shaking, incubated for 10 min in the dark, and read by BioTek Synergy H1 microplate reader.
# The luminescence signal values were used to calculate the inhibition rate, the concentration and the inhibition rate were fitted to a nonlinear regression curve using Graphpad Prism software.
# [2] = system: phosphorylation of ERK, a downstream signal factor of TT cells; experiment: ERK phosphorylation in TT cells (Western Blot); format: cell-based, human; conditions: for inhibition of the phosphorylation level of ERK in TT cells, overall: 3.7-300 nM, 2 hours
# Procedure: In this experiment, the inhibitory effect of compounds on the phosphorylation level of ERK, a downstream signaling factor in TT cells, was measured by Western Blot method. When TT cells were cultured to the appropriate fusion degree, the cells were collected and adjusted to a suitable cell concentration using complete medium, the cell suspension was spread in a 24-well plate, 1 mL per well, and placed in a 37° C., 5% CO2 incubator overnight, and compound dilutions of different concentrations (3.7 nM, 11.1 nM, 33.3 nM, 100 nM, 300 nM) were added at 37° C. and acted for 2 hours; the cell supernatant was aspirated, washed one time with PBS, and the proteins were collected with lysate; after protein denaturation, Western blot experiments were performed: performing protein electrophoresis at 120V for approximately 75 minutes, followed by 45 minutes of transfer to PVDF membranes at 10V with a semi-dry transfer instrument, enclosing at 5% BSA for 1 hour at room temperature, and then PVDF membranes were cut into strips of appropriate size and incubated with prepared antibody dilutions overnight at 4° C. and washed 6 times with TBST, followed by imaging with goat anti-mouse secondary antibody and sheep anti-rabbit secondary antibody for 1 hour at room temperature, and the membrane was washed 6 times with TBST for imaging in the Biorad ChemiDoc™ MP Imaging System.
# The inhibitory effect of compounds on ERK phosphorylation levels in TT cells at different concentrations was determined by detecting protein bands.
# [3] = target: T1, RET (Homo sapiens, UniProt P07949); experiment: HTRF kinase assay, RET wild-type; format: biochemical; conditions: ATP at Km
# T1 construct: purchased Carna 08-159
# Excerpt: • RET enzyme was purchased from Carna Company, and the article number was 08-159; • RET M918T enzyme was purchased from Carna Company, and the article number was 08-508; • KIF5B-RET was purchased from SignalChem Company, the article number was R02-19FG-05; • CCDC6-RET was purchased from SignalChem Company, the article number was R02-19BG-05; • RET V804M enzyme was purchased from Thermofisher Company, and the article number was PV6223; • RET V804L enzyme was purchased from Thermofisher Company, and the article number was PV4397; • HTRF KinEASE-TK kit was purchased from Cisbio Company, and the article number was 62TK0PEC; • ATP was purchased from Thermofisher Company, and the article number was PV3227; • 384-well plate was purchased from PerkinElmer Company, and the article number was 6007290.
# In this experiment, the homogeneous time-resolved fluorescence (HTRF) method was used for the detection of compounds on RET kinase activity.
# [4] = target: T2, KDR kinase (Homo sapiens, UniProt P35968); experiment: HTRF kinase assay, KDR; format: biochemical; conditions: for IC50: HTRF, ATP at Km; for Ratio (KDR/RET): KDR IC50 / RET IC50
# T2 construct: purchased Carna 08-191
# Excerpt: • KDR kinase was purchased from Carna Company, and the article number was 08-191; • HTRF KinEASE-TK kit was purchased from Cisbio Company, and the article number was 62TK0PEC; • ATP was purchased from Thermofisher Company, and the article number was PV3227; • 384-well plate was purchased from PerkinElmer Company, and the article number was 6007290.
# In this experiment, the homogeneous time-resolved fluorescence (HTRF) method was used for the detection of compounds on KDR kinase activity.
# [5] = system: TT xenograft tumor; experiment: Subcutaneous xenograft tumor model of human thyroid cancer cell TT; format: in vivo, BALB/c nude mice; conditions: for Tumor inhibition rate TGI d 22 / Tumor volume (mm^3, mean ± SEM) d 22: oral BID 21 days; for Tumor volume (mm^3, mean ± SEM) d 0: oral BID
# Procedure: TT cells were cultured in vitro in a monolayer under the following conditions: F-12K medium with 20% heat-inactivated fetal bovine serum and 1% penicillin-streptomycin double antibodies at 37° C. and 5% CO2. Trypsin-EDTA was used twice a week digestion for digestion treatment passaging. When cells were in an exponential growth period, cells were collected, counted and inoculated.
# TT cells were collected when they were full in a logarithmic growth period, ensuring over 90% of vitality. 0.2 mL cell suspension containing about 1×10^7 of TT cells (cells suspended in basic F-12K medium and added with 50% Matrigel) was subcutaneously inoculated into the right back tumor of each mouse […].
# • 1. The day of grouping was day 0 (DO). The interval of BID administration was 6-8 h/18-16 h. The first dose was given in the afternoon of day DO and the last dose was given in the morning of day D21. • 2. Dosing volume: […] according to the body weight of nude mice.
# Animal grouping: Before administration, the animals were weighed and the tumor volume was measured. The mice were randomly grouped according to tumor volume (randomized grouping design) with 5 animals per group.
# Experimental index: The diameter of tumor was measured by vernier caliper twice a week. The tumor volume was calculated by the formula: V=a×b^2/2, a and b denote the long and short diameter of the tumor, respectively. The tumor suppressive efficacy of the compounds was evaluated by TGI (%). TGI (%)=(1−(TVTreatment/Dx−TVTreatment/D1)/(TVControl/Dx−TVControl/D1))×[…].
# T test was used for comparison between two groups. One-way ANOVA was used for comparison among three or more groups. If there were significant differences in F values, multiple comparisons should be made after ANOVA analysis. GraphPadPrism 5.0 was used for all data analysis.
# [6] = Balb/C mouse pharmacokinetics, oral; format: in vivo; conditions: Balb/C mice, p.o., 5 mg/kg, plasma
# Procedure: The pharmacokinetic behavior of the following compound embodiments, administered orally at a dose of 5 mg/kg in plasma in mice, was studied using Balb/C mice as test animals.
# Balb/C Mouse 6/embodiment, male, Shanghai Jiesijie Laboratory Animal Co., Ltd, Animal Production License No. (SCXK (Shanghai) 2013-0006 N0.311620400001794).
# Balb/C mice, males; p.o. after overnight fasting, respectively, at a dose of 5 mg/kg, administered in a volume of 10 mL/kg.
# 0.5% CMC-Na(1% Tween80) was dissolved by ultrasound, and prepared into clear solution or uniform suspension.
# Before and after administration, 0.1 mL of blood was collected from mice at 0, 0.5, 1, 2, 4, 6, 8 and 24 hours by orbital collection, placed in EDTA-K2 tubes, centrifuged at 6000 rpm at 4° C. for 6 min to separate plasma, and stored at −80° C.
# 40 μL of plasma sample was precipitated by adding 160 μL of acetonitrile, mixed and centrifuged at 3500×g for 5-20 min.
# 100 μL of the supernatant solution after treatment was taken to analyze the concentration of the test compound by LC/MS/MS.
# The main pharmacokinetic parameters were calculated using WinNonlin 6.1 and the results of the mouse pharmacokinetic experiments were shown in Table 8 below.
# T2 sequence (P35968 20-1356): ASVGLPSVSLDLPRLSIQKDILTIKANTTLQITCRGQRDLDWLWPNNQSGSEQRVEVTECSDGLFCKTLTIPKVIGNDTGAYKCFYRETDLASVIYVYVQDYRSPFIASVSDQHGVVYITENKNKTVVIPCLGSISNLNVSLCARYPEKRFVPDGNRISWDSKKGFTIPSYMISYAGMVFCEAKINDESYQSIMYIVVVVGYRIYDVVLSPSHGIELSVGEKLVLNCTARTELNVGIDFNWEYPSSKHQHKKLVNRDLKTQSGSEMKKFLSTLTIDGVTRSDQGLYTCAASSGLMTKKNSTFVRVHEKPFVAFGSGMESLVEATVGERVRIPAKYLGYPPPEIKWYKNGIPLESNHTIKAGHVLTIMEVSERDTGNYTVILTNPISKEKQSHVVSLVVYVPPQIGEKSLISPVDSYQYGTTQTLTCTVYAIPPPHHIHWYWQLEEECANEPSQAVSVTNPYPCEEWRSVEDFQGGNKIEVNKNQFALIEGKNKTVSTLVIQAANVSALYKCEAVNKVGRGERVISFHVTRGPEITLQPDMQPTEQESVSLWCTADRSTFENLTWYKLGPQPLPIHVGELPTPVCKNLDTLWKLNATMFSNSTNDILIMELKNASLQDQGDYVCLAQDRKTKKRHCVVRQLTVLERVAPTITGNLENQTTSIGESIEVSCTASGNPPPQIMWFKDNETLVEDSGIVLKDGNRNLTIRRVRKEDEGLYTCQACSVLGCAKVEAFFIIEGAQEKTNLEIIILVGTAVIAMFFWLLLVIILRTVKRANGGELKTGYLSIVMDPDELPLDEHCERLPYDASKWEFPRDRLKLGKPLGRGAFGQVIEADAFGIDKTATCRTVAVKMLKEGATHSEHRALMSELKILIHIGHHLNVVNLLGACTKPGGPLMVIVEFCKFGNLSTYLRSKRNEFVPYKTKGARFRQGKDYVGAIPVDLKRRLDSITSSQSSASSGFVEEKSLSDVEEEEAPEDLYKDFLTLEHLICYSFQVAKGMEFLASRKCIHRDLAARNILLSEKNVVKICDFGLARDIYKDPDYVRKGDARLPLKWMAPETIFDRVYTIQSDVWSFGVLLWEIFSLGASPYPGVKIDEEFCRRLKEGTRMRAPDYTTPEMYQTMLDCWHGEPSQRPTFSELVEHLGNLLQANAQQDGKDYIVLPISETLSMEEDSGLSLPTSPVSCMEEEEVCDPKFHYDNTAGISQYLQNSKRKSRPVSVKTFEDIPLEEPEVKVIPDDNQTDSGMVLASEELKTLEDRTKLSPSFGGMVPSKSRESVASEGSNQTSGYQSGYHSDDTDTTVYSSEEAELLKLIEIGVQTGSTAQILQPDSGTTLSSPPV
# T1 sequence (P07949 29-1114): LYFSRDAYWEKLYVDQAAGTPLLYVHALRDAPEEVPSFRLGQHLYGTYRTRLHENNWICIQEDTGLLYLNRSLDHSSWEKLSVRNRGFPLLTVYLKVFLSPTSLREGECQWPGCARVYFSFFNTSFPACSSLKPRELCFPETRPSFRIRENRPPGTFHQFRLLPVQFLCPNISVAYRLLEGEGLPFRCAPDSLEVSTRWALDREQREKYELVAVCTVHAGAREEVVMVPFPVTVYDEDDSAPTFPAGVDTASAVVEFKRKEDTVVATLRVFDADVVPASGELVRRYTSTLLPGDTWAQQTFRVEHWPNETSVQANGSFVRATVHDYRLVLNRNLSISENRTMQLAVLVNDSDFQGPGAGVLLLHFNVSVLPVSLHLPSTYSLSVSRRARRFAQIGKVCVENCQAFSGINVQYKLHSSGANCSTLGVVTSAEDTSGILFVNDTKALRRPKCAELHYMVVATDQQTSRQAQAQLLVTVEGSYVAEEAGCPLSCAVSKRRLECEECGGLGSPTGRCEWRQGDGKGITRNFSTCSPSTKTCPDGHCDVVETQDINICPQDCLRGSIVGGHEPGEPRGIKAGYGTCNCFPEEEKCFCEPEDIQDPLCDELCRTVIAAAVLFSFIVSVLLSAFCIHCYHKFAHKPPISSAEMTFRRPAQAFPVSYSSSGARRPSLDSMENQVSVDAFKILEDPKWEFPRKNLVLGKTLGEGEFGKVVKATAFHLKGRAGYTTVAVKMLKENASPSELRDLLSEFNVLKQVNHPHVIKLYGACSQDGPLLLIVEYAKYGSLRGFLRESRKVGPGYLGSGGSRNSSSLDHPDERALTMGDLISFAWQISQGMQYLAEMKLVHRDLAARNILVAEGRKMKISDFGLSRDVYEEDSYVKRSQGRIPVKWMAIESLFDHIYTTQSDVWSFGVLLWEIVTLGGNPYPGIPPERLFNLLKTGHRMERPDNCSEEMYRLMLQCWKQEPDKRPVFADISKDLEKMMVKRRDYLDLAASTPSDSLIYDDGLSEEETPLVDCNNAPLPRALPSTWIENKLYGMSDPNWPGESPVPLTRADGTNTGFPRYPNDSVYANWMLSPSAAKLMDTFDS
IC50 [3] [nM],IC50 [4] [nM],Ratio (KDR/RET) [4],Compound,also measured
–,–,–,"COc1ccc(CN2C3CC2CN(c2ccc(-c4cc(OCC56CC(C#N)(C5)C6)cn5ncc(C#N)c45)cn2)C3)cn1 [Embodiment 138, 6-((3-Cyanobicyclo[1.1.1]pentan-1-yl)methoxy)-4-(6-(6-((6-methoxypyridin-3-yl)methyl)-3,6-diazabicyclo[3.1.1]heptan-3-yl)pyridin-3-yl)pyrazolo[1,5-a]pyridine-3-carbonitrile]",IC50 ([1]; 72 hours): 25.1 nM
–,–,–,"C#C[C@@](C)(O)COc1cc(-c2ccc(N3CC4CC(C3)N4Cc3ccc(OC)nc3)nc2)c2c(C#N)cnn2c1 [Embodiment 152, 6-(((R)-2-hydroxy-2-methylbut-3-yn-1-yl)oxy)-4-(6-(6-((6-methoxypyridin-3-yl)methyl)-3,6-diazabicyclo[3.1.1]heptan-3-yl)pyridin-3-yl)pyrazolo[1,5-a]pyridine-3-carbonitrile]","inhibition of the phosphorylation level of ERK in TT cells, overall [2]: significantly inhibit"
–,–,–,"C#C[C@](C)(O)COc1cc(-c2ccc(N3CC4CC(C3)N4Cc3ccc(OC)nc3)nc2)c2c(C#N)cnn2c1 [Embodiment 153, 6-(((S)-2-hydroxy-2-methylbut-3-yn-1-yl)oxy)-4-(6-(6-((6-methoxypyridin-3-yl)methyl)-3,6-diazabicyclo[3.1.1]heptan-3-yl)pyridin-3-yl)pyrazolo[1,5-a]pyridine-3-carbonitrile]","inhibition of ERK phosphorylation ([2]; 11.1 nM, 2 hours at 37° C., TT cells): inhibit half of the ERK phosphorylation level; inhibition of the phosphorylation level of ERK in TT cells, overall [2]: significantly inhibit"
1.3,17,14,"CC(C)(O)COc1cc(-c2ccc(N3CCC(N)(C(=O)N4CCc5ccccc54)CC3)nc2)c2c(C#N)cnn2c1 [Embodiment 62, 4-(6-(4-Amino-4-(indoline-1-carbonyl)piperidin-1-yl)pyridin-3-yl)-6-(2-hydroxy-2-methylpropoxy)pyrazolo[1,5-a]pyridine-3-carbonitrile]",–
–,–,–,"COc1ncc(CN2C3CC2CN(c2ccc(-c4cc(C#CC(C)(C)O)cn5ncc(C#N)c45)cn2)C3)cc1F [Embodiment 94, 4-(6-(6-((5-Fluoro-6-methoxypyridin-3-yl)methyl)-3,6-diazabicyclo[3.1.1]heptan-3-yl)pyridin-3-yl)-6-(3-hydroxy-3-methylbut-1-yn-1-yl)pyrazolo[1,5-a]pyridine-3-carbonitrile]","Tumor inhibition rate TGI d 22 ([5]; 30 mg/kg): 99.64%; Tumor volume (mm^3, mean ± SEM) d 22 ([5]; 30 mg/kg): 203.56 ± 31.74 mm^3; Tumor volume (mm^3, mean ± SEM) d 0 ([5]; 30 mg/kg): 199.73 ± 24.07 mm^3"
–,–,–,"COc1ccc(CN2C3CC2CN(c2ccc(-c4cc(N5CC(C)(C#N)C5)cn5ncc(C#N)c45)cn2)C3)cn1 [Embodiment 168, 6-(3-Cyano-3-methylazetidin-1-yl)-4-(6-(6-((6-methoxypyridin-3-yl)methyl)-3,6-diazabicyclo[3.1.1]heptan-3-yl)pyridin-3-yl)pyrazolo[1,5-a]pyridine-3-carbonitrile]","Tumor inhibition rate TGI d 22 ([5]; 10 mg/kg): 129.77%; Tumor volume (mm^3, mean ± SEM) d 22 ([5]; 10 mg/kg): 144.14 ± 8.95 mm^3; Tumor volume (mm^3, mean ± SEM) d 0 ([5]; 10 mg/kg): 205.23 ± 16.57 mm^3"
3.6,124,35,"Cc1ccc(F)cc1C(=O)NC1(C)CC2CN(c3ccc(-c4cc(OCC(C)(C)O)cn5ncc(C#N)c45)cn3)CC2C1 (stereo not drawn) [Embodiment 75, N-(2-(5-(3-cyano-6-(2-hydroxy-2-methylpropoxy)pyrazolo[1,5-a]pyridin-4-yl)pyridin-2-yl)-5-methyloctahydrocyclopenta[c]pyrrol-5-yl)-5-fluoro-2-methylbenzamide]",–
–,–,–,"COc1ccc(CN2C3CC2CN(c2ccc(-c4cc(OCC(C)(C)C#N)cn5ncc(C#N)c45)cn2)C3)cn1 [Embodiment 34, 6-(2-Cyano-2-methylpropoxy)-4-(6-(6-((6-methoxypyridin-3-yl)methyl)-3,6-diazabicyclo[3.1.1]heptan-3-yl)pyridin-3-yl)pyrazolo[1,5-a]pyridine-3-carbonitrile]",Half-life t1/2 [6]: 4.2 h
1.22,1.6,1.3,"COc1ccc(OC2CCN(c3ccc(-c4cc(C#CC(C)(C)O)cn5ncc(C#N)c45)cn3)CC2)cn1 [Embodiment 32, 6-(3-Hydroxy-3-methylbut-1-yn-1-yl)-4-(6-(4-((6-methoxypyridin-3-yl)oxo)piperidin-1-yl)pyridin-3-yl)pyrazolo[1,5-a]pyridine-3-carbonitrile]",–

Compound,IC50 [3] [nM],IC50 [4] [nM],Ratio (KDR/RET) [4],also measured
COc1ccc(CN2C3CC2CN(c2ccc(-c4cc(/C=C/C(C)(C)O)cn5ncc(C#N)c45)cn2)C3)cn1 [Embodiment 127],0.26,6.5,25,"IC50 ([1]; Homo sapiens, TT, 72 h): 5.87 nM"
"6-((1-Imino-1-hydroxy-1l6-thietan-3-yl)methoxy)-4-(6-(6-((6-methoxypyridin-3-yl)methyl)-3,6-diazabicyclo[3.1.1]heptan-3-yl)pyridin-3-yl)pyrazolo[1,5-a]pyridine-3-carbonitrile [Embodiment 85]",1.3,69,55,–

# — US20260042759A1, “INHIBITOR CONTAINING BICYCLIC DERIVATIVE, PREPARATION METHOD THEREFOR AND USE THEREOF” (SHANGHAI HANSOH BIOMEDICAL CO., LTD., priority 2019, published 2026)
